# Laboratory results as given in patent US20240269139A1, “COMPOUNDS FOR TARGETED PROTEIN DEGRADATION OF KINASES” (DANA-FARBER CANCER INSTITUTE, INC., priority 2020, published 2024).
# Like-named read-outs stand apart in the source and are kept apart here.
# Experiments:
# [1] = biological target: T1, protein kinases (human kinome) (Homo sapiens, UniProt O14976); type: cell-based
# T1 sequence (O14976 1-1311): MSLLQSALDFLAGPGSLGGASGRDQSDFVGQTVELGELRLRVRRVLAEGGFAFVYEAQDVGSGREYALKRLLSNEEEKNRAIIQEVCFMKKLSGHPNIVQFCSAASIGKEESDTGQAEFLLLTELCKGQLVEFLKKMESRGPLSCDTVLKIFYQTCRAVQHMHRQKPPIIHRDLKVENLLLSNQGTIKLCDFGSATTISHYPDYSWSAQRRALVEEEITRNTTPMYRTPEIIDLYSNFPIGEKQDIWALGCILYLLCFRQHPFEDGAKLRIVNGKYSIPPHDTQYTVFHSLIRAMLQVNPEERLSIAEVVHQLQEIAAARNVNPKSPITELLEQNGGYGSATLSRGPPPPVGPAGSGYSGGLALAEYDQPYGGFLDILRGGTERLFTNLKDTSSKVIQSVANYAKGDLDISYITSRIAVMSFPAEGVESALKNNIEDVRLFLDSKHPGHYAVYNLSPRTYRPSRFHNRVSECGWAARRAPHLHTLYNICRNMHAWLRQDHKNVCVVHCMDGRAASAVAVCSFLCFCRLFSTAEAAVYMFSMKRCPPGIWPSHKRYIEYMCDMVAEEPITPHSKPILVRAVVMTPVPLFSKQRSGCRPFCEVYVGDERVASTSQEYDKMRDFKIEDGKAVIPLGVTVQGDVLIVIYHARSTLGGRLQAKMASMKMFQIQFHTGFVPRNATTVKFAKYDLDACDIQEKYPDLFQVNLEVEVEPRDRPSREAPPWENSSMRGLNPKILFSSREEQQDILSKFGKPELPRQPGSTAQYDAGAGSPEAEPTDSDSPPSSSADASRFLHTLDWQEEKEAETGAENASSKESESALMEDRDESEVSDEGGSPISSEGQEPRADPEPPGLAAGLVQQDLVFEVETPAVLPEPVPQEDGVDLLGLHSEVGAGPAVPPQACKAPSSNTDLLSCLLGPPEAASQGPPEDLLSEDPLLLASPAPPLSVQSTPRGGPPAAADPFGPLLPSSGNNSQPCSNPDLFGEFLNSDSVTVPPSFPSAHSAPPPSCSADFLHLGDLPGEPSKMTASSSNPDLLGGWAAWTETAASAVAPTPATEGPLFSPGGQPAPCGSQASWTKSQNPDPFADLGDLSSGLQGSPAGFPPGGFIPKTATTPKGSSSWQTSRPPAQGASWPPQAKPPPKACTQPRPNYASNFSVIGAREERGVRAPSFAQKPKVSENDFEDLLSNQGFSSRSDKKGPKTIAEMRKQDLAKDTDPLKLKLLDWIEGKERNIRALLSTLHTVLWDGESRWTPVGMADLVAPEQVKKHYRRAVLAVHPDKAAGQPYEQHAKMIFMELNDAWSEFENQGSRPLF
# [2] = biological target: protein kinases (human kinome) (Homo sapiens, UniProt Q9H0K1); type: cell-based; conditions: for logFC of SIK2: Accession Q9H0K1; for logFC SIK2 (Q9H0K1): direction of change down; for logFC SIK2: SIK2 (Q9H0K1), down
# [3] = GAK (O14976), experiment wp195, down
# [4] = GAK, accession O14976, experiment wp195, direction of change down
# [5] = GAK (O14976), experiment wp168, down
# protein kinases (human kinome) (Homo sapiens, UniProt Q9H0K1), sequence (Q9H0K1 whole entry): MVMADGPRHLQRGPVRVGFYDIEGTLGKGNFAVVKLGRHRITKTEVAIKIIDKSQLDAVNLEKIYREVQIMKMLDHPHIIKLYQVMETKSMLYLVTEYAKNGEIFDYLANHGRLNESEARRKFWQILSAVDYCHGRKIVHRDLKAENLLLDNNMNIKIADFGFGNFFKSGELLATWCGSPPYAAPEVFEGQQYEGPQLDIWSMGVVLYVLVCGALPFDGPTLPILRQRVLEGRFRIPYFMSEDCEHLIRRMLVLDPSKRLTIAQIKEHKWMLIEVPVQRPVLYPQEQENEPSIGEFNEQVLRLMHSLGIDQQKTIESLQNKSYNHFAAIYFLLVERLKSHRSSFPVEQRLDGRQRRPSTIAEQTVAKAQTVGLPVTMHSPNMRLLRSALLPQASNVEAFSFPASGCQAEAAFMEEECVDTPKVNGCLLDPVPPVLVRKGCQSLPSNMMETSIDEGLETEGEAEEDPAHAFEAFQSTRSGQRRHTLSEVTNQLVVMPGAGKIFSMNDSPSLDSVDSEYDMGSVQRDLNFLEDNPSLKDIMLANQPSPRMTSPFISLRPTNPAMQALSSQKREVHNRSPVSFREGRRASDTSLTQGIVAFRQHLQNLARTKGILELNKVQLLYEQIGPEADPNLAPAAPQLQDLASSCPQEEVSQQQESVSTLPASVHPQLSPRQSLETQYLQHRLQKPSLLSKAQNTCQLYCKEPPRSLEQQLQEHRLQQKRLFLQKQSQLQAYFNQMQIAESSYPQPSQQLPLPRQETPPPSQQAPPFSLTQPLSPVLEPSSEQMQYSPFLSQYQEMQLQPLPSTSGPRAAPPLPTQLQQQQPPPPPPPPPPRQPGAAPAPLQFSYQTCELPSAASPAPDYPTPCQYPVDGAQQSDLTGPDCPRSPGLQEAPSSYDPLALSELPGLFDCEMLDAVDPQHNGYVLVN
compound,measurement,setting,value
Cc1ncsc1-c1ccc([C@H](C)NC(=O)[C@@H]2C[C@@H](O)CN2C(=O)[C@@H](NC(=O)CCCCCN2CCc3cc(Nc4ncc(C5CC5)c(NCCCNC(=O)C5CCC5)n4)ccc3C2)C(C)(C)C)cc1 [BSJ.05.026],logFC GAK,[1]; [3],−0.5819
same,logFC GAK,[1]; [4],−0.6819
same,logFC of SIK2,[2]; experiment wp195,−0.9472
same,logFC SIK2 (Q9H0K1),[2]; experiment wp195,−0.9472
Cc1ccc(NC(=O)c2cccc(C(F)(F)F)c2)cc1N1Cc2cnc(Nc3ccc(N4CCN(CCCOc5cccc6c5C(=O)N(C5CCC(=O)NC5=O)C6=O)CC4)nc3)nc2N(C)C1=O (stereo not drawn) [DB0662],logFC GAK,"[1]; GAK (O14976), direction down, experiment wp168",−0.4373
same,logFC GAK,[1]; [5],−0.4373
same,logFC of SIK2,[2]; experiment wp168,−0.777
same,logFC SIK2 (Q9H0K1),[2]; experiment wp168,−0.777
Cc1ccc(NC(=O)c2cccc(C(F)(F)F)c2)cc1N1Cc2cnc(Nc3ccc(N4CCN(CCCCCCOc5cccc6c5C(=O)N(C5CCC(=O)NC5=O)C6=O)CC4)nc3)nc2N(C)C1=O (stereo not drawn) [DB0663],logFC of GAK (O14976),"[1]; Experiment wp045, down",−0.691
same,logFC GAK,"[1]; GAK (O14976), direction down, experiment wp045",−0.691
same,logFC of SIK2,[2]; experiment wp045,−0.4765
same,logFC SIK2,[2]; experiment wp045,−0.4765
Cc1ccc(NC(=O)c2cccc(C(F)(F)F)c2)cc1N1Cc2cnc(Nc3ccc(N4CCN(CCCCC(=O)N[C@H](C(=O)N5C[C@H](O)C[C@H]5C(=O)N[C@@H](C)c5ccc(-c6scnc6C)cc5)C(C)(C)C)CC4)nc3)nc2N(C)C1=O [DB1113],logFC GAK,[1]; [5],−1.029
same,logFC GAK,"[1]; GAK, accession O14976, experiment wp168, direction of change down",−1.029
same,logFC of SIK2,[2]; experiment wp168,−0.7296
same,logFC SIK2 (Q9H0K1),[2]; experiment wp168,−0.7296
Cc1cnc(Nc2ccc(N3CCN(CCCCCCC(=O)N[C@H](C(=O)N4C[C@H](O)C[C@H]4C(=O)N[C@@H](C)c4ccc(-c5scnc5C)cc4)C(C)(C)C)CC3)cc2)nc1Nc1cccc(S(=O)(=O)NC(C)(C)C)c1 [JWG.123],logFC GAK,[1]; [3],−0.5246
same,logFC GAK,[1]; [4],−0.5246
same,logFC of SIK2,[2]; experiment wp195,−0.6143
same,logFC SIK2 (Q9H0K1),[2]; experiment wp195,−0.6143
"Cc1ncsc1-c1ccc([C@H](C)NC(=O)[C@@H]2C[C@@H](O)CN2C(=O)[C@@H](NC(=O)CCCCCN2CCN(c3ccc(Nc4ncc5scc(-c6cccc(NS(C)(=O)=O)c6)c5n4)cc3)CC2)C(C)(C)C)cc1 [RSS0680, (2S,4R)-1-((S)-3,3-Dimethyl-2-(6-(4-(4-((7-(3-(methylsulfonamido)phenyl)thieno[3,2-d]pyrimidin-2-yl)amino)phenyl)piperazin-1-yl)hexanamido)butanoyl)-4-hydroxy-N—((S)-1-(4-(4-methylthiazol-5yl)phenyl)ethyl)pyrrolidine-2-carboxamide]",logFC of GAK (O14976),"[1]; Experiment wp080, down",−0.7773
same,logFC of GAK (O14976),"[1]; Experiment wp117, down",−0.6853
same,logFC GAK,"[1]; GAK (O14976), direction down, experiment wp080",−0.7773
same,logFC GAK,"[1]; GAK (O14976), direction down, experiment wp117",−0.6853
same,logFC of SIK2,[2]; experiment wp080,−0.6986
same,logFC of SIK2,[2]; experiment wp117,−0.7184
same,logFC SIK2,[2]; experiment wp080,−0.6986
same,logFC SIK2 (Q9H0K1),[2]; experiment wp117,−0.7184
Cc1ccc(C(=O)Nc2ccc(CN3CCN(CCCOCCOCCOCCNC(=O)COc4cccc5c4C(=O)N(C4CCC(=O)NC4=O)C5=O)CC3)c(C(F)(F)F)c2)cc1C#Cc1cnc2cccnn12 (stereo not drawn) [SB1.G.187],logFC of GAK (O14976),"[1]; Experiment wp056, down",−1.543
same,logFC of GAK (O14976),"[1]; Experiment wp103, down",−1.478
same,logFC of GAK (O14976),"[1]; Experiment wp105, down",−1.088
same,logFC of GAK (O14976),"[1]; Experiment wp107, down",−1.768
same,logFC of GAK (O14976),"[1]; Experiment wp114, down",−0.3578
same,logFC GAK,"[1]; GAK (O14976), direction down, experiment wp056",−1.543
same,logFC GAK,"[1]; GAK (O14976), direction down, experiment wp103",−1.478
same,logFC GAK,"[1]; GAK (O14976), direction down, experiment wp105",−1.088
same,logFC GAK,"[1]; GAK (O14976), direction down, experiment wp107",−1.768
same,logFC GAK,"[1]; GAK (O14976), direction down, experiment wp114",−0.3578
same,logFC GAK,"[1]; GAK (O14976), experiment wp172, down",−1.007
same,logFC GAK,"[1]; GAK, accession O14976, experiment wp172, direction of change down",−1.007
Cc1ccc(C(=O)Nc2ccc(CN3CCN(CCOCCOCCNC(=O)CNc4cccc5c4C(=O)N(C4CCC(=O)NC4=O)C5=O)CC3)c(C(F)(F)F)c2)cc1C#Cc1cnc2cccnn12 (stereo not drawn) [TL13.150],logFC of GAK (O14976),"[1]; Experiment wp081, down",−1.014
same,logFC GAK,"[1]; GAK (O14976), direction down, experiment wp081",−1.014
